Paper PMC11089506 (Journal of Medicinal Chemistry, 2024)
pEC50, pIC50: −log10 of the molar value. Structures can show the parent of a compound that is named as a salt. Where two headings read alike, the source gives them in different places.

How the values were obtained:
[1] = system: Purinergic receptor P2Y; experiment: radioligand competition binding, [35S]dATPαS; design: species or system rat
[2] = biological target: T1, SERT (Homo sapiens, UniProt P31645); experiment: radioligand competition binding, [3H]imipramine
T1 construct: Eurofins

[3] = biological target: Ca2+ Channel L-Type, (Benzothiazepine) (Rattus norvegicus, UniProt P22002); experiment: biochemical; conditions: read-out: % inhibition of the specific radioligand binding
[4] = biological target: T2, human 5-HT2BR (Homo sapiens, UniProt P41595); experiment: Calcium No Wash PLUS assay, 5-HT2BR-HEK293 cells (Eurofins); type: cell-based; conditions: fluorescence-based Ca2+ imaging assay
T2 construct: host or cells: HEK293 (membrane homogenates)

[5] = biological target: T3, Tachykinin receptor NK3 (Homo sapiens, UniProt P29371); experiment: radioligand competition binding, [125I]MePhe7-Neurokinin B
T3 construct: Eurofins (contract laboratory)

[6] = biological target: T4, Endothelin receptor ETA (Homo sapiens, UniProt P25101); experiment: radioligand competition binding, [125I]Endothelin-1
T4 construct: Eurofins

[7] = biological target: T5, Neuropeptide Y receptor Y1 (Homo sapiens, UniProt P25929); experiment: radioligand competition binding, [125I]Peptide YY
T5 construct: Eurofins

[8] = biological target: T6, α2C (adrenergic receptor) (Homo sapiens, UniProt P18825); experiment: radioligand competition binding, [3H]RX 821002
T6 construct: Eurofins

[9] = biological target: T7, α1A (adrenergic receptor) (Homo sapiens, UniProt P35348); experiment: radioligand competition binding, [3H]Prazosin
T7 construct: Eurofins

[10] = biological target: T8, D2S (dopaminergic receptor) (Homo sapiens, UniProt P14416); experiment: radioligand competition binding, [3H]7-OH-DPAT; conditions: read-out: % inhibition of the specific radioligand binding
T8 construct: Eurofins

[11] = biological target: T9, Prostanoid receptor EP4 (Homo sapiens, UniProt P35408); experiment: radioligand competition binding, [3H]Prostaglandin E2
T9 construct: Eurofins

[12] = biological target: T10, M3 (muscarinic receptor) (Homo sapiens, UniProt P20309); experiment: radioligand competition binding, [3H]4-DAMP
T10 construct: Eurofins

[13] = biological target: T11, Opioid receptor δ (Homo sapiens, UniProt P41143); experiment: radioligand competition binding, [3H] Naltrindole
T11 construct: Eurofins

[14] = biological target: T12, 5-HT1B (Homo sapiens, UniProt P28222); experiment: radioligand competition binding, [3H]GR125743
T12 construct: Eurofins

[15] = system: Thyroid hormone receptor; experiment: radioligand competition binding, [125I]Triiodothyronine; design: species or system rat
[16] = system: NMDA receptor (PCP); experiment: radioligand competition binding, [3H]TCP; design: species or system rat
[17] = biological target: T13, M4 (muscarinic receptor) (Homo sapiens, UniProt P08173); experiment: radioligand competition binding, [3H]4-DAMP
T13 construct: Eurofins
T13 sequence (P08173 1-479): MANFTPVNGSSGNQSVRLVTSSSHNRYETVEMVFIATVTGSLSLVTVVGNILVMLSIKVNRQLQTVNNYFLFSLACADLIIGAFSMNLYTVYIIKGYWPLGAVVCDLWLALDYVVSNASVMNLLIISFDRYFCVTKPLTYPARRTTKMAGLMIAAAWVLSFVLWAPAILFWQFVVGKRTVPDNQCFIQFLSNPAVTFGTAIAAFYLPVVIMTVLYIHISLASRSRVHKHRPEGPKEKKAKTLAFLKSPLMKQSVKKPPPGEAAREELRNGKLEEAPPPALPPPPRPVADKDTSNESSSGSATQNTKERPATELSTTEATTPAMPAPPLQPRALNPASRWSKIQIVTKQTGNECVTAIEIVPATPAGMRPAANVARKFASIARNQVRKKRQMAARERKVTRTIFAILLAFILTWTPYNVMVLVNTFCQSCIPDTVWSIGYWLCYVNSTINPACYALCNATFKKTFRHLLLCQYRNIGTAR

[18] = biological target: T14, β1 (adrenergic receptor) (Homo sapiens, UniProt P08588); experiment: radioligand competition binding, [3H](-)CGP 12177
T14 construct: Eurofins

[19] = biological target: T15, Endothelin receptor ETB (Homo sapiens, UniProt P24530); experiment: radioligand competition binding, [125I]Endothelin-1
T15 construct: Eurofins

[20] = biological target: Androgen receptor (NHR) (Homo sapiens, UniProt P10275); experiment: biochemical; conditions: read-out: % inhibition of the specific radioligand binding
[21] = biological target: T16, Tachykinin receptor NK1 (Homo sapiens, UniProt P25103); experiment: radioligand competition binding, [3H]Substance P
T16 construct: Eurofins (contract laboratory)

[22] = system: MDR1; experiment: MDR1-MDCK II permeability assay; type: in vitro ADME; conditions: dog, MDCK-MDR1, pH 7.4, Table S6
[23] = system: MDR1 (P-gp); experiment: MDR1-MDCK II permeability assay; type: in vitro ADME; conditions: dog, MDCK-MDR1, pH 7.4
[24] = biological target: T17, H3 (histaminergic receptor) (Homo sapiens, UniProt Q9Y5N1); experiment: radioligand competition binding, [3H]N-α-methyl-histamine
T17 construct: Eurofins

[25] = biological target: T18, M2 (muscarinic receptor) (Homo sapiens, UniProt P08172); experiment: radioligand competition binding, [3H]AF-DX 384
T18 construct: Eurofins

[26] = biological target: T19, NMDA receptor (Glycine) (Rattus norvegicus, UniProt P35439); experiment: radioligand competition binding, [3H]MDL 105,519
T19 construct: Eurofins

[27] = biological target: T20, Adenosine receptor A3 (Homo sapiens, UniProt P0DMS8); experiment: radioligand competition binding, [125I]AB-MECA
T20 construct: Eurofins

[28] = biological target: T21, H2 (histaminergic receptor) (Homo sapiens, UniProt P25021); experiment: radioligand competition binding, [125I]APT
T21 construct: Eurofins

[29] = system: various other targets (Table S4); experiment: broad screen, radioligand binding competition assays (Eurofins), summary; conditions: high nanomolar or micromolar ranges
[30] = estimated from the % inhibition data
[31] = read-out: % inhibition of the specific radioligand binding

T10 sequence (P20309 whole entry): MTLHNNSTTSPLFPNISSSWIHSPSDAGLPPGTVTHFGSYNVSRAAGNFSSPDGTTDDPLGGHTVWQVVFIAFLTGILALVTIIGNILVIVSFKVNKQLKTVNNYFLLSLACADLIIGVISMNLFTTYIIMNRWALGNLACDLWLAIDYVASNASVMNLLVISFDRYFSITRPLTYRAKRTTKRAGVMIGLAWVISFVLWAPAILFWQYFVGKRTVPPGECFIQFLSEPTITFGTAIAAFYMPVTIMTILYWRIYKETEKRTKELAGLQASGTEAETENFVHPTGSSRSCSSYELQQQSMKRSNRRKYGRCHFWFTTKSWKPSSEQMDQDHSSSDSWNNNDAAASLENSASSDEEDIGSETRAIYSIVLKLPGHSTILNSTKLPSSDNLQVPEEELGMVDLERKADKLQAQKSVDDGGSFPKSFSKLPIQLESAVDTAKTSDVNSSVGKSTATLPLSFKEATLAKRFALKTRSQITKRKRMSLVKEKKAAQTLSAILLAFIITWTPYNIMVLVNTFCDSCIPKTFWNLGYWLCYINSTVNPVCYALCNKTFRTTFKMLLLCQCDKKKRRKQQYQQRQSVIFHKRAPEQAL
T12 sequence (P28222 whole entry): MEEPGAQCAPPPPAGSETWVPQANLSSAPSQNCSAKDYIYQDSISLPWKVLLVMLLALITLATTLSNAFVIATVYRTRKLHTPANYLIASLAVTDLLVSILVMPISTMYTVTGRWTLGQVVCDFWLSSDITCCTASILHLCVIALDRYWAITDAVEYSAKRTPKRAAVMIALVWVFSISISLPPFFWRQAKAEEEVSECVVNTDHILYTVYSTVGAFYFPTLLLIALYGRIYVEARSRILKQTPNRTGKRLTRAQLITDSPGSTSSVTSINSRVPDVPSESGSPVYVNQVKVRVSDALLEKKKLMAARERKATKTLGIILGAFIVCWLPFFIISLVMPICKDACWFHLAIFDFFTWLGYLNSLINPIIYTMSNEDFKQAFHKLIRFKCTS
T20 sequence (P0DMS8 whole entry): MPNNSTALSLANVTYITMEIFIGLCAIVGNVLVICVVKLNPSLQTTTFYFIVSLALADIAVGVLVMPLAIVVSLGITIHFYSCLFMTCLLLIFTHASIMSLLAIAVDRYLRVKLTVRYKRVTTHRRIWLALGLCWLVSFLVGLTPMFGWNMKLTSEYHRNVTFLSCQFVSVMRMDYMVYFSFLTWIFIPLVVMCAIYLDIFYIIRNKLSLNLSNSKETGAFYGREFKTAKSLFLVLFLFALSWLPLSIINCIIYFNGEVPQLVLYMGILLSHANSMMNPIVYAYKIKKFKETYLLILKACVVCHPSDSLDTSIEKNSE
T1 sequence (P31645 whole entry): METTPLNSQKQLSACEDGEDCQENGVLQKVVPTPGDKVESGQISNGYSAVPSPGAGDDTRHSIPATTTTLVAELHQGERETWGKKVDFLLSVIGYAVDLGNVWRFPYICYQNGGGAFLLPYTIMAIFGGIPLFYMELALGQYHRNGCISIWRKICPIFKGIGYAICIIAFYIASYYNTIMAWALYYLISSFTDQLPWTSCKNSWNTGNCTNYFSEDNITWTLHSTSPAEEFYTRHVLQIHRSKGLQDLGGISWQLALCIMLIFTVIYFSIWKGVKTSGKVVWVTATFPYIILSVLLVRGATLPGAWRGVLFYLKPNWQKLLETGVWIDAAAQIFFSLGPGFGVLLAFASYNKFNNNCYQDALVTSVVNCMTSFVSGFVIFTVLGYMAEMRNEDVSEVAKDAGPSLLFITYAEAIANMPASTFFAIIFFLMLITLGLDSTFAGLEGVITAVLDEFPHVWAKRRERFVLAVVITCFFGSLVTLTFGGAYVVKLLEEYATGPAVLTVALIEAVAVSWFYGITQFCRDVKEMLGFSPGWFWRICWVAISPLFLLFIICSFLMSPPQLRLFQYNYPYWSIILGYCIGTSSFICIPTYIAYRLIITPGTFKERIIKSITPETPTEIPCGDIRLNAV
T14 sequence (P08588 whole entry): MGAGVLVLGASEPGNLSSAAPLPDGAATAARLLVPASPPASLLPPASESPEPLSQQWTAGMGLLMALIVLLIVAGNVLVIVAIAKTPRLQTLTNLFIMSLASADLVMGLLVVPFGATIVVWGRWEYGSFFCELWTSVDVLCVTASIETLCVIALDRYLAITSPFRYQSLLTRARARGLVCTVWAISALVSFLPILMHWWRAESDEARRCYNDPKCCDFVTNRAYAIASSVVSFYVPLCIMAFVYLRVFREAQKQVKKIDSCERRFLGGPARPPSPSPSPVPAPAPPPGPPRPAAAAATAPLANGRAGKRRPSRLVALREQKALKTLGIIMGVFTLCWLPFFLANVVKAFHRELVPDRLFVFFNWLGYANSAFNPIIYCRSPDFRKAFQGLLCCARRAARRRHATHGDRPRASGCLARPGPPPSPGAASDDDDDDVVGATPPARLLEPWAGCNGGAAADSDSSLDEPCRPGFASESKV
T5 sequence (P25929 whole entry): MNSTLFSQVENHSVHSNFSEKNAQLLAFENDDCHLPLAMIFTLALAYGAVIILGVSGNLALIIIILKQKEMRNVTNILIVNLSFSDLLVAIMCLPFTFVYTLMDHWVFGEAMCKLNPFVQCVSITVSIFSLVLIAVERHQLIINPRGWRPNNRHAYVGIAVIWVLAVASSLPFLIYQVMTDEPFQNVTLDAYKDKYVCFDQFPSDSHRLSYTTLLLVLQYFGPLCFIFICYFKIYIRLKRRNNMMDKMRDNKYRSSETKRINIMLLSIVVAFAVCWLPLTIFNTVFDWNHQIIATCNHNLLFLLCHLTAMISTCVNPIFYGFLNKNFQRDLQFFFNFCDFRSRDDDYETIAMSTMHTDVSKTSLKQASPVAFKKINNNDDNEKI
T7 sequence (P35348 whole entry): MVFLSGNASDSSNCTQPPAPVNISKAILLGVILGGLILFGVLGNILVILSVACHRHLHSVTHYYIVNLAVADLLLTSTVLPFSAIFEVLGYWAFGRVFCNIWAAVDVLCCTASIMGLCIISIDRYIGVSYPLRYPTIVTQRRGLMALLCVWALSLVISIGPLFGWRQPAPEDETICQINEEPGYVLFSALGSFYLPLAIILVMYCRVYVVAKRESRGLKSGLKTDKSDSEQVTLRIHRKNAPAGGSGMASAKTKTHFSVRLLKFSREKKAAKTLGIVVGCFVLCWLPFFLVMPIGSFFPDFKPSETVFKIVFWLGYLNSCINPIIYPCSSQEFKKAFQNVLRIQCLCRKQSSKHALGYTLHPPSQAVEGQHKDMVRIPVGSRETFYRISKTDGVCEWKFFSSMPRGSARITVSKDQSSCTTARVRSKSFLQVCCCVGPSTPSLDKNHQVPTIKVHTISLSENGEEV
T6 sequence (P18825 whole entry): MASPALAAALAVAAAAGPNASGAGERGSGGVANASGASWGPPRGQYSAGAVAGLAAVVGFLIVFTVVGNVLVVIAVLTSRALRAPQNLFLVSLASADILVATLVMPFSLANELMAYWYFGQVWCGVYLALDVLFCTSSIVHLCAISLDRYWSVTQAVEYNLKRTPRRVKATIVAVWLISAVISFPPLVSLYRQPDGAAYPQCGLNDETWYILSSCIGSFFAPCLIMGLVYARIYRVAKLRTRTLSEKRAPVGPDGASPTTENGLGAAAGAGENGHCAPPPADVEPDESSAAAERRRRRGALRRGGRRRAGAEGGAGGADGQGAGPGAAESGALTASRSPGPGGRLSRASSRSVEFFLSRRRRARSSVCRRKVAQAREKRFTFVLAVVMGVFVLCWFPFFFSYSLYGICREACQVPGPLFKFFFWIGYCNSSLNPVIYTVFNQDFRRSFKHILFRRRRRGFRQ
T11 sequence (P41143 whole entry): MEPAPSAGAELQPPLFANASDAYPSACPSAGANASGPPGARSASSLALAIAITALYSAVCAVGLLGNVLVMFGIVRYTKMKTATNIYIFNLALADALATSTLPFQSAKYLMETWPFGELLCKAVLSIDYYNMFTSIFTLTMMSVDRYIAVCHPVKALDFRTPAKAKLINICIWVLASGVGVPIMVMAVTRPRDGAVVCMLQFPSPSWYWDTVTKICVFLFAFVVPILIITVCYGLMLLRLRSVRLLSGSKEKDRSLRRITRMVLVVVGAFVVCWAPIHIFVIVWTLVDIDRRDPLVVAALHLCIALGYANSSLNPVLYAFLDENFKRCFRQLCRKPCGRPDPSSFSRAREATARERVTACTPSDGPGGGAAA
T9 sequence (P35408 whole entry): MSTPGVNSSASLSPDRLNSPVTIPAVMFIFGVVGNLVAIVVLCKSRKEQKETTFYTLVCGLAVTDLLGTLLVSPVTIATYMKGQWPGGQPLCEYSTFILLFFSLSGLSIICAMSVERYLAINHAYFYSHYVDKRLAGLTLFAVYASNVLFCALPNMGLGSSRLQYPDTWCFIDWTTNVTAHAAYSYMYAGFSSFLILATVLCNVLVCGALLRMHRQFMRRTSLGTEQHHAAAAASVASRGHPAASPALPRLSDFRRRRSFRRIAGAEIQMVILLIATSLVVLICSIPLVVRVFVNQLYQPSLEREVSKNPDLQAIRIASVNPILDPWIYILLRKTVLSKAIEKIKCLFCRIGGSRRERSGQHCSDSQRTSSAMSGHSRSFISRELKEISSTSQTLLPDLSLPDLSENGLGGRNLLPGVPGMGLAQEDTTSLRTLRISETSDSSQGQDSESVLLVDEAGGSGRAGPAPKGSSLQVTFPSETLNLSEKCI
T21 sequence (P25021 whole entry): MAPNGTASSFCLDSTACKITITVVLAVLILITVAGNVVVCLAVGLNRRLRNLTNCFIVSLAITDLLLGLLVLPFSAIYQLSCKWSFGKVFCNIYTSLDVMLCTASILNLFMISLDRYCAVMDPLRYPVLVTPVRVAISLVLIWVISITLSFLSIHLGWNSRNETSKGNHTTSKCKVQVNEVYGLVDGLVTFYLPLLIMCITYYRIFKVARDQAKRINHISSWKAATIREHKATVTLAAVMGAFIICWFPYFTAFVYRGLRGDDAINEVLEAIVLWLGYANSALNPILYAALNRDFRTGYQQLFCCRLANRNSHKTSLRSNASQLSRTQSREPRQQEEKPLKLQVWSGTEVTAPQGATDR

COc1cc(C(F)(F)F)c(OC)cc1[C@@H]1CCCNC1 [(S)-11, 3-(2,5-Dimethoxy-4-(trifluoromethyl)phenyl)piperidine Hydrochloride]
% inhibition of the specific radioligand binding ([1]; (S)-11 10 μM, n=1): 2%
pIC50 [1, 30]: < 5.00
pIC50 [2, 30]: < 5.00
inhibition at 10 µM [2, 31]: 22%
inhibition at 10 µM [3]: 66%
pEC50 [4]: 6.72
pIC50 [5, 30]: < 5.00
inhibition at 10 µM [5, 31]: 14%
pIC50 [6, 30]: < 5.00
inhibition at 10 µM [6, 31]: 12%
pIC50 [7, 30]: < 5.00
inhibition at 10 µM [7, 31]: -4%
pIC50 [8, 30]: < 5.00
inhibition at 10 µM [8, 31]: 36%
pIC50 [9, 30]: < 5.00
inhibition at 10 µM [9, 31]: 32%
inhibition at 10 µM [10]: 59%
pIC50 [11, 30]: < 5.00
inhibition at 10 µM [11, 31]: 9%
pIC50 [12, 30]: ~6.00
inhibition at 1 µM [12, 31]: 41%
inhibition at 10 µM [12, 31]: 90%
pIC50 [13, 30]: < 5.00
inhibition at 10 µM [13, 31]: 18%
pIC50 [14, 30]: 5.00 to 6.00
inhibition at 1 µM [14, 31]: 21%
inhibition at 10 µM [14, 31]: 68%
% inhibition of the specific radioligand binding ([15]; (S)-11 10 μM, n=1): -1%
pIC50 [15, 30]: < 5.00
% inhibition of the specific radioligand binding ([16]; (S)-11 10 μM, n=1): 4%
pIC50 [16, 30]: < 5.00
pIC50 [17, 30]: 5.00 to 6.00
inhibition at 0.1 µM [17, 31]: 9%
inhibition at 1 µM [17, 31]: 38%
inhibition at 10 µM [17, 31]: 80%
pIC50 [18, 30]: < 5.00
inhibition at 10 µM [18, 31]: 38%
pIC50 [19, 30]: < 5.00
inhibition at 10 µM [19, 31]: -6%
inhibition at 10 µM [20]: 1%
pIC50 [21, 30]: < 5.00
inhibition at 10 µM [21, 31]: 31%
recovery at […] ([22]; read-out: Mean Recovery A to B): 70%
recovery at […] ([22]; read-out: Mean Recovery B to A): 92%
Papp A→B at […] [23]: 18.4 ×10⁻⁶ cm/s
Papp B→A at […] [23]: 17.3 ×10⁻⁶ cm/s
Papp A→B at […], 2 µM ([23]; Figure 6): 18.6 ×10⁻⁶ cm/s
Papp B→A at […], 2 µM ([23]; Figure 6): 17.3 ×10⁻⁶ cm/s
pIC50 [24, 30]: < 5.00
inhibition at 10 µM [24, 31]: 11%
pIC50 [25, 30]: ~5.00
inhibition at 10 µM [25, 31]: 40%
pIC50 [26, 30]: < 5.00
inhibition at 10 µM [26, 31]: -20%
pIC50 [27, 30]: < 5.00
inhibition at 10 µM [27, 31]: -10%
pIC50 [28, 30]: < 5.00
inhibition at 10 µM [28, 31]: 10%
binding affinities at the respective targets of the broad screen [29]: > 100 nM
